Source: article PMC4457528, “Identification of Novel Small Molecule Inhibitors of Oncogenic RET Kinase” (PLoS ONE, 2015)

Experiments:
Test in all cases: KinomeScan kinase panel, single concentration 10 µM
Type in all cases: binding
KinomeScan kinase panel [1] = target: T1, KinomeScan kinase panel (Homo sapiens, UniProt O60285); settings: ARK5, 10 µM
T1 construct: purchased DiscoveRx (KinomeScan)
T1 sequence (O60285 1-661): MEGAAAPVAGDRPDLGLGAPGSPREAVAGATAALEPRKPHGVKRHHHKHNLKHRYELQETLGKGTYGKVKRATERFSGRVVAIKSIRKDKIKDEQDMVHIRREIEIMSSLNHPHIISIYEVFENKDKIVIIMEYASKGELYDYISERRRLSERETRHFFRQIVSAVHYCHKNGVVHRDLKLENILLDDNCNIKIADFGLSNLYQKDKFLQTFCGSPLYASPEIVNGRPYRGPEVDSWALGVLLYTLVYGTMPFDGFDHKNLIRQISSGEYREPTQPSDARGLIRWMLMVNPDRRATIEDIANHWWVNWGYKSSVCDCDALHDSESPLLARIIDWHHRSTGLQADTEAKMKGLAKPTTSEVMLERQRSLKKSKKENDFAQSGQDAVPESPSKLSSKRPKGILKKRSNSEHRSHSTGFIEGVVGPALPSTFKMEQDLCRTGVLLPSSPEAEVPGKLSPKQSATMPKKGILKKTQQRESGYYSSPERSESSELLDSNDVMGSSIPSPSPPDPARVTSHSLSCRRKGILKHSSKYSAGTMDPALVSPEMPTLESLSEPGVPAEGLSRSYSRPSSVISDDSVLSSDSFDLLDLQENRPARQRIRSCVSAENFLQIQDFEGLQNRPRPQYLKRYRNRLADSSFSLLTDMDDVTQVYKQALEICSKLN

KinomeScan kinase panel [2] = target: T2, KinomeScan kinase panel (Homo sapiens, UniProt Q99755); settings: PIP5K1A, 10 µM; read-out: score (%)
T2 construct: purchased DiscoveRx (KinomeScan)

KinomeScan kinase panel [3] = target: T3, KinomeScan kinase panel (Homo sapiens, UniProt Q16816); settings: PHKG1, 10 µM; read-out: score (%)
T3 construct: purchased DiscoveRx (KinomeScan)

KinomeScan kinase panel [4] = target: T4, KinomeScan kinase panel (Homo sapiens, UniProt Q13177); settings: PAK2, 10 µM; read-out: score (%)
T4 construct: purchased DiscoveRx (KinomeScan)

KinomeScan kinase panel [5] = target: T5, KinomeScan kinase panel (Homo sapiens, UniProt P22607, G697C); settings: FGFR3(G697C), 10 µM; read-out: score (%)
T5 construct: purchased DiscoveRx (KinomeScan)

KinomeScan kinase panel [6] = target: T6, KinomeScan kinase panel (Homo sapiens, UniProt Q16513); settings: PKN2, 10 µM; read-out: score (%)
T6 construct: purchased DiscoveRx (KinomeScan)

KinomeScan kinase panel [7] = target: T7, KinomeScan kinase panel (Homo sapiens, UniProt Q8TD08); settings: ERK8, 10 µM; read-out: score (%)
T7 construct: purchased DiscoveRx (KinomeScan)
T7 sequence (Q8TD08 1-544): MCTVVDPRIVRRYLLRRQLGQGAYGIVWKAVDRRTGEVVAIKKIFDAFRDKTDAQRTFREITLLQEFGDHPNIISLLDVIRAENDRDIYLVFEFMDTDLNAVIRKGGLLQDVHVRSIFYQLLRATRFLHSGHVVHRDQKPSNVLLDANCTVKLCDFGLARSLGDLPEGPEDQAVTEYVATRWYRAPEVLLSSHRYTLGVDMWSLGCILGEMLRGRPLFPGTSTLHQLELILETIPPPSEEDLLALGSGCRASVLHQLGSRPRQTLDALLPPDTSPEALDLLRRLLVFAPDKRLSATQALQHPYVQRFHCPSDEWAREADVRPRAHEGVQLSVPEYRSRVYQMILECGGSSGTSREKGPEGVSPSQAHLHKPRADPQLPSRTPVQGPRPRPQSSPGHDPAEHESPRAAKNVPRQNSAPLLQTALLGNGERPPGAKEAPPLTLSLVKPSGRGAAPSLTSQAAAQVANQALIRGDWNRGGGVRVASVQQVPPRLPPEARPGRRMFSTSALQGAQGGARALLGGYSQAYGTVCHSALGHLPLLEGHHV

KinomeScan kinase panel [8] = target: T8, KinomeScan kinase panel (Homo sapiens, UniProt P27448); settings: MARK3, 10 µM; read-out: score (%)
T8 construct: purchased DiscoveRx (KinomeScan)

KinomeScan kinase panel [9] = target: T9, KinomeScan kinase panel (Homo sapiens, UniProt Q04912); settings: MST1R, 10 µM; read-out: score (%)
T9 construct: purchased DiscoveRx (KinomeScan)

KinomeScan kinase panel [10] = target: T10, KinomeScan kinase panel (Homo sapiens, UniProt Q9UQB9); settings: AURKC, 10 µM; read-out: score (%)
T10 construct: purchased DiscoveRx (KinomeScan)
T10 sequence (Q9UQB9 1-309): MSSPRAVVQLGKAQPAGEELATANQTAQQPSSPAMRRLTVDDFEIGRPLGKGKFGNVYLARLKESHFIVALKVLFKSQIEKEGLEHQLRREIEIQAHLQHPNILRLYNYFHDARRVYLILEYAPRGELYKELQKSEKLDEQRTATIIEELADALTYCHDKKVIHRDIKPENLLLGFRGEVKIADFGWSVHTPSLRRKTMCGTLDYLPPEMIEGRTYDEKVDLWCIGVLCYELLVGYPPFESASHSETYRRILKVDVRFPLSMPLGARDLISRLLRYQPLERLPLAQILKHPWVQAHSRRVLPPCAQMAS

KinomeScan kinase panel [11] = target: T11, KinomeScan kinase panel (Homo sapiens, UniProt Q9NYL2); settings: kinase ZAK; 10 µM; read-out: score (%)
T11 construct: purchased DiscoveRx (KinomeScan)

KinomeScan kinase panel [12] = target: T12, KinomeScan kinase panel (Homo sapiens, UniProt P10721, D816V); settings: KIT(D816V), 10 µM; read-out: score (%)
T12 construct: purchased DiscoveRx (KinomeScan)

KinomeScan kinase panel [13] = target: T13, KinomeScan kinase panel (Homo sapiens, UniProt P49336); settings: CDK8, 10 µM
T13 construct: purchased DiscoveRx (KinomeScan)

T5 sequence (P22607 23-806 G697C): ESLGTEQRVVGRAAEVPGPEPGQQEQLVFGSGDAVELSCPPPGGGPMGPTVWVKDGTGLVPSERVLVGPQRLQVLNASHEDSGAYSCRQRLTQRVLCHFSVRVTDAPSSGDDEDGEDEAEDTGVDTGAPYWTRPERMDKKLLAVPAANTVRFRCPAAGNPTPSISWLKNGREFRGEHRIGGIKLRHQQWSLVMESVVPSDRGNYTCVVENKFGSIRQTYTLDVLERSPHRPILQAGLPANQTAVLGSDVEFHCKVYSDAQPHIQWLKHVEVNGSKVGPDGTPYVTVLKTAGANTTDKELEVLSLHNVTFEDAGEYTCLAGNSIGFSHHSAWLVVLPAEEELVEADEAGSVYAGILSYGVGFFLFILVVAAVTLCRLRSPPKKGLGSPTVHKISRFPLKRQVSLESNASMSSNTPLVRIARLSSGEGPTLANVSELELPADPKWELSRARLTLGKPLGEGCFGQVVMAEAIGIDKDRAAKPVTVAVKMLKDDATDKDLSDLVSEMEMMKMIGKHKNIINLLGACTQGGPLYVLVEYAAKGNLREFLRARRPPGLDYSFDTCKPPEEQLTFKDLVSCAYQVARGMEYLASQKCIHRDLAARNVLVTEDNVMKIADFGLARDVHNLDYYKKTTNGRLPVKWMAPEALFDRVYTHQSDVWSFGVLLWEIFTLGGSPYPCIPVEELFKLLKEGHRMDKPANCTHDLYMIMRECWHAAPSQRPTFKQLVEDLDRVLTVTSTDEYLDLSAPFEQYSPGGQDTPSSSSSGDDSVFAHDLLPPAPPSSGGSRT
T12 sequence (P10721 26-976 D816V): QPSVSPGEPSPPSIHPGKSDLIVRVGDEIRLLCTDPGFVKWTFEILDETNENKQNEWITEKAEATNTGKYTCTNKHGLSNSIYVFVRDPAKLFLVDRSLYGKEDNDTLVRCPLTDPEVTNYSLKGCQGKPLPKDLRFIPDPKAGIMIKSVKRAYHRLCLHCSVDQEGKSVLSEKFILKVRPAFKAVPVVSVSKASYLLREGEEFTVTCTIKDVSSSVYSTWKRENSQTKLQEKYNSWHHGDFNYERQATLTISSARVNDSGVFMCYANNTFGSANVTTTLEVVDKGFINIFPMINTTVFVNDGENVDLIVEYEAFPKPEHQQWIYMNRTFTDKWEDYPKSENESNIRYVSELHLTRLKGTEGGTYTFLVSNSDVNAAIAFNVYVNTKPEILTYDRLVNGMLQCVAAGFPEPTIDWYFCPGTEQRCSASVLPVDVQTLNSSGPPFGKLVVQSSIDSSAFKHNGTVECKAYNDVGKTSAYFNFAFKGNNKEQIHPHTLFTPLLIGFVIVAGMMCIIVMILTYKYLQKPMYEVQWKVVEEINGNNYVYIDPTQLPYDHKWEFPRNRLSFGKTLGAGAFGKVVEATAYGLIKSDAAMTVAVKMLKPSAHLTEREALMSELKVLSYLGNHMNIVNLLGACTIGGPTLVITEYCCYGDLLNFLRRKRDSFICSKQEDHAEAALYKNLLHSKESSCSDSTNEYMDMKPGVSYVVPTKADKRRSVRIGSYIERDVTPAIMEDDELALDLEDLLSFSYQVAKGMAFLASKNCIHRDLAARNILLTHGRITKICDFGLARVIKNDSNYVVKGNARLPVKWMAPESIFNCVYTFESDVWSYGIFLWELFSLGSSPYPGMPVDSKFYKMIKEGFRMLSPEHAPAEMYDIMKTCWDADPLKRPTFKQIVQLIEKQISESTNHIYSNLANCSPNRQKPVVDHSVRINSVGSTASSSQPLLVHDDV
T8 sequence (P27448 whole entry): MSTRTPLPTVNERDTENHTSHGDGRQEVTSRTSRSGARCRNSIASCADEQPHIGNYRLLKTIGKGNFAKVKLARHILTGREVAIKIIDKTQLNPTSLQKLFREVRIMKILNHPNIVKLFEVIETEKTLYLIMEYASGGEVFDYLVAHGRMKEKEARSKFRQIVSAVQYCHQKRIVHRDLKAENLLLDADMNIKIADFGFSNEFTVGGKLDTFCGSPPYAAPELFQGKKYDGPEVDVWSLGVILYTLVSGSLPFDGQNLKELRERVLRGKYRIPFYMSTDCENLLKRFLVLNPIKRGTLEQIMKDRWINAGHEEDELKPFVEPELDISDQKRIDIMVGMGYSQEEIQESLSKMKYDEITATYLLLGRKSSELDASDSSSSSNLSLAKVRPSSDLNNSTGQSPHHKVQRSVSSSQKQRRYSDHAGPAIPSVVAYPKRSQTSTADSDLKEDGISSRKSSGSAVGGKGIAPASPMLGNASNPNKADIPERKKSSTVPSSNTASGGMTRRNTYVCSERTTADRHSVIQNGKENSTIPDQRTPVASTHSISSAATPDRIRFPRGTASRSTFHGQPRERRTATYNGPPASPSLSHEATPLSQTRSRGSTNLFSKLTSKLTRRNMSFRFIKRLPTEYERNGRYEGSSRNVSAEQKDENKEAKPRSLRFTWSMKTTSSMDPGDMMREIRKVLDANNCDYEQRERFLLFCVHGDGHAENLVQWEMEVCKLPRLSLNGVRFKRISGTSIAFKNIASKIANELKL
T2 sequence (Q99755 whole entry): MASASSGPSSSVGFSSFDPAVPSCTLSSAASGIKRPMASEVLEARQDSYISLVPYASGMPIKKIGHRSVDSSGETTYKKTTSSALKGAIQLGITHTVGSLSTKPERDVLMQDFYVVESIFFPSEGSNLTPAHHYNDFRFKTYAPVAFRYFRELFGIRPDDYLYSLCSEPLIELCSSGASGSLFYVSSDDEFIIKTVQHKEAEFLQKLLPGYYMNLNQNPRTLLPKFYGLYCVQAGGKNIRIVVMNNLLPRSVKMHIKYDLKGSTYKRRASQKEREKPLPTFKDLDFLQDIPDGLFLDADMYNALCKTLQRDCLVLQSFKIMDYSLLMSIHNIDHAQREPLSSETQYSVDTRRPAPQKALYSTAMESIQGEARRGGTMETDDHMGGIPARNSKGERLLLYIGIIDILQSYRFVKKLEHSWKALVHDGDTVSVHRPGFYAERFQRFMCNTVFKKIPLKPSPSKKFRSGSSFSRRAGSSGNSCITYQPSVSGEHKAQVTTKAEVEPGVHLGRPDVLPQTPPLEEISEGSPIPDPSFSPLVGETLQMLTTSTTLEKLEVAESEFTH
T9 sequence (Q04912 25-1400): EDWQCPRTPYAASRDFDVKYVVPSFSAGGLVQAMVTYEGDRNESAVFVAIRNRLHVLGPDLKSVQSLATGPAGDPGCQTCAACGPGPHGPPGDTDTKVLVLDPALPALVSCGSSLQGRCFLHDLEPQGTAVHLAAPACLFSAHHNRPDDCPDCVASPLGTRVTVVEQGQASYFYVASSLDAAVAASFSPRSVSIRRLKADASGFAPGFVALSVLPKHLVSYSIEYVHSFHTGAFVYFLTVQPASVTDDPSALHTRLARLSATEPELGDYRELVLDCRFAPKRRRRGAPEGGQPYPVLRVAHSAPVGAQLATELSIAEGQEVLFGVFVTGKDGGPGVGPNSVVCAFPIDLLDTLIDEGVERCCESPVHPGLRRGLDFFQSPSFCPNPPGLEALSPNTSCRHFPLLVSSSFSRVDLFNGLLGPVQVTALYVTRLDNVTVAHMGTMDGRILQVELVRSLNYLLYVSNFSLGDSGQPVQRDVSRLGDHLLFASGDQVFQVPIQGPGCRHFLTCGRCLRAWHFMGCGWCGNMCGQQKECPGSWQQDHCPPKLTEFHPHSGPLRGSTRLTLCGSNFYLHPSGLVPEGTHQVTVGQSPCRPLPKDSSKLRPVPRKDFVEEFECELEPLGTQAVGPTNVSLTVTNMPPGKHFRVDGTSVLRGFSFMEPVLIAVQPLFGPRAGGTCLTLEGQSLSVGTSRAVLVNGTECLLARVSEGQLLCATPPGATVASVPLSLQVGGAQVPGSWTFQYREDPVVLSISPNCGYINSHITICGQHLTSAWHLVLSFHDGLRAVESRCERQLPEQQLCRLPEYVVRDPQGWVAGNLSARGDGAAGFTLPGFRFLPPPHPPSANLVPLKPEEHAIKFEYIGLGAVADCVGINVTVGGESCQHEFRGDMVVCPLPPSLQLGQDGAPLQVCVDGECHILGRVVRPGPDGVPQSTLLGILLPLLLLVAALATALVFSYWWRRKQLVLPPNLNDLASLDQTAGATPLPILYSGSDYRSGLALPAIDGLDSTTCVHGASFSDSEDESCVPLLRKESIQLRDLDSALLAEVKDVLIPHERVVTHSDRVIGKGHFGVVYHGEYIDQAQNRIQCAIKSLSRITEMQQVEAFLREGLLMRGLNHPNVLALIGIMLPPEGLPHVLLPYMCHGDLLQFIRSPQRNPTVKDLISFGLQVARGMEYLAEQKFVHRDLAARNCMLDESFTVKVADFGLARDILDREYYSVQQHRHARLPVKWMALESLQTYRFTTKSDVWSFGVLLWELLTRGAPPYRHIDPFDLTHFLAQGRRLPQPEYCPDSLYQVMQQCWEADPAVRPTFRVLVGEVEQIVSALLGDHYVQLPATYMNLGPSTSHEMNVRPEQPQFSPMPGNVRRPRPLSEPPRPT
T3 sequence (Q16816 whole entry): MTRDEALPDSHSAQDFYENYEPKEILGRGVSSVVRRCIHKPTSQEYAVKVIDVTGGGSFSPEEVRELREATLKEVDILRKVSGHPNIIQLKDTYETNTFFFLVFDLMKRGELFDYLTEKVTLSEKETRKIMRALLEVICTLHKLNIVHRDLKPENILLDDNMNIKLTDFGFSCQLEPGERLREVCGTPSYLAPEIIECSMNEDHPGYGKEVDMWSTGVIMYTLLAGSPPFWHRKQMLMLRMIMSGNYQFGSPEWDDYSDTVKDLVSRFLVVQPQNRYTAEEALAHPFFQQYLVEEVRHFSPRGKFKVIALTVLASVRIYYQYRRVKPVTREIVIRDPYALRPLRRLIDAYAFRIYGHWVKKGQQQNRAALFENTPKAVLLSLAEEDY

Structure (SMILES)	score (%) (KinomeScan kinase panel [1])	remaining binding at 10 µM (KinomeScan kinase panel [2])	remaining binding at 10 µM (KinomeScan kinase panel [3])	remaining binding at 10 µM (KinomeScan kinase panel [4])	remaining binding at 10 µM (KinomeScan kinase panel [5])	remaining binding at 10 µM (KinomeScan kinase panel [6])	remaining binding at 10 µM (KinomeScan kinase panel [7])	remaining binding at 10 µM (KinomeScan kinase panel [8])	remaining binding at 10 µM (KinomeScan kinase panel [9])	remaining binding at 10 µM (KinomeScan kinase panel [10])	remaining binding at 10 µM (KinomeScan kinase panel [11])	remaining binding at 10 µM (KinomeScan kinase panel [12])	score (%) (KinomeScan kinase panel [13])
CCN1CCN(Cc2ccc(NC(=O)c3ccc(C)c(NC(=O)c4cncc(-c5cccs5)c4)c3)cc2C(F)(F)F)CC1 [ALW-II-41-27]	nb (Hits values higher than 30% were considered negative (no binding: nb))	> 30%	> 30%	> 30%	> 30%	> 30%	> 30%	> 30%	> 30%	> 30%	3%	0.75%	20%
CCN1CCN(Cc2ccc(NC(=O)c3ccc(C)c(/C=C/c4cnc5[nH]ccc5c4Cl)c3)cc2C(F)(F)F)CC1 [HG-6-63-01, (E)-3-(2-(4-chloro-1H-pyrrolo[2,3-b]pyridin-5-yl)vinyl)-N-(4-((4-ethylpiperazin-1-yl)methyl)-3-(trifluoromethyl)phenyl)-4-methylbenzamide]	nb (Hits values higher than 30% were considered negative (no binding: nb))	15%	> 30%	> 30%	2.4%	23%	> 30%	29%	> 30%	0.65%	0.35%	0.3%	9.6%
CCN1CCN(Cc2ccc(NC(=O)c3ccc(C)c(C#Cc4cccnc4)c3)cc2C(F)(F)F)CC1 [XMD15-44]	nb (Hits values higher than 30% were considered negative (no binding: nb))	79%	88%	84%	0.05%	36%	1.8%	> 30%	> 30%	13%	0.4%	2%	8.2%
